# Results: patent publication US9744122B2, “Topical formulation for pain relief” (priority 2013, dated 2017)
# Experiments:
# TRPV1 receptor = TRPV1 receptor (Homo sapiens, UniProt Q8NER1); test: inventors' own studies on mechanism of topical pain relief; conditions: distinct from osmotic effects
# From the text: The TRPV1 receptor is present on sensory nerves in the skin and is implicated in neurogenic inflammation, acute pain and chronic pain.
# [1] = testing of topical pain relief; format: in vivo
# From the text: A new route of administration for mannitol for the specific indication of pain is disclosed. The topical composition allows for transdermal delivery of mannitol. […] The ingredients, including mannitol, are typically classified as natural health products.
# (§1) Therefore, an improved topical composition includes from 0.25% up to 20.0% of menthol, by weight.
# [2] = absorption of mannitol through skin; conditions: when menthol is included in the composition
# From the text: as §1
# Chain of TRPV1 receptor (Q8NER1 whole entry): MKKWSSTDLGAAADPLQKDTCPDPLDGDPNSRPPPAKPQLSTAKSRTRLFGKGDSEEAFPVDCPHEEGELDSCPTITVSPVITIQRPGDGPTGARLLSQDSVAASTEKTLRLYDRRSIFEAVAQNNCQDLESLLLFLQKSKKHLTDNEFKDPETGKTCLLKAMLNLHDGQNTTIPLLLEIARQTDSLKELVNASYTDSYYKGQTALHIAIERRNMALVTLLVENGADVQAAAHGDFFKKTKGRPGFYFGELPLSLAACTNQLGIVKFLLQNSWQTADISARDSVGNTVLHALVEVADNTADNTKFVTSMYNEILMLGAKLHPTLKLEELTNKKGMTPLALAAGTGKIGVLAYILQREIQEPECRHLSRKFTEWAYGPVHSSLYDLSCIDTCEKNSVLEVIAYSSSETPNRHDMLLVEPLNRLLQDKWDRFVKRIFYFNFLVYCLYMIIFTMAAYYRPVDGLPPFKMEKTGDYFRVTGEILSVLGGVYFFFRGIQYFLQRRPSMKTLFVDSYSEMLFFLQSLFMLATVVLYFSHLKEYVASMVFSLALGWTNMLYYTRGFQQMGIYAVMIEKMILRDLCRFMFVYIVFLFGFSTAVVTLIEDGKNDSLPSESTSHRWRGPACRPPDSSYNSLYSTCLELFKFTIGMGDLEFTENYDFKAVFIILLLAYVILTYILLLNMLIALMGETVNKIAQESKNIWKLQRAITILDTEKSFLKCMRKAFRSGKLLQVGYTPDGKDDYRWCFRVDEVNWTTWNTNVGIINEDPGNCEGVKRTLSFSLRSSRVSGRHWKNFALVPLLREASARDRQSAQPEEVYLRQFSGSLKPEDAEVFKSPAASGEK
SMILES,effect on TRPV1 receptor (TRPV1 receptor),pain relief ([1]; when menthol is included in the composition),absorption through skin [2],effectiveness of menthol content in the topical composition ([1]; 1.25% menthol by weight)
OC[C@@H](O)[C@@H](O)[C@H](O)[C@H](O)CO [mannitol],down-regulation,improved pain relief,much more effectively absorbed,–
CC1CCC(C(C)C)C(O)C1 (stereo not shown) [menthol],–,–,–,effective
